The target of this assay is T1, full length β-catenin (aa 1-781) (Homo sapiens, UniProt P35222).
T1 sequence (P35222 1-781): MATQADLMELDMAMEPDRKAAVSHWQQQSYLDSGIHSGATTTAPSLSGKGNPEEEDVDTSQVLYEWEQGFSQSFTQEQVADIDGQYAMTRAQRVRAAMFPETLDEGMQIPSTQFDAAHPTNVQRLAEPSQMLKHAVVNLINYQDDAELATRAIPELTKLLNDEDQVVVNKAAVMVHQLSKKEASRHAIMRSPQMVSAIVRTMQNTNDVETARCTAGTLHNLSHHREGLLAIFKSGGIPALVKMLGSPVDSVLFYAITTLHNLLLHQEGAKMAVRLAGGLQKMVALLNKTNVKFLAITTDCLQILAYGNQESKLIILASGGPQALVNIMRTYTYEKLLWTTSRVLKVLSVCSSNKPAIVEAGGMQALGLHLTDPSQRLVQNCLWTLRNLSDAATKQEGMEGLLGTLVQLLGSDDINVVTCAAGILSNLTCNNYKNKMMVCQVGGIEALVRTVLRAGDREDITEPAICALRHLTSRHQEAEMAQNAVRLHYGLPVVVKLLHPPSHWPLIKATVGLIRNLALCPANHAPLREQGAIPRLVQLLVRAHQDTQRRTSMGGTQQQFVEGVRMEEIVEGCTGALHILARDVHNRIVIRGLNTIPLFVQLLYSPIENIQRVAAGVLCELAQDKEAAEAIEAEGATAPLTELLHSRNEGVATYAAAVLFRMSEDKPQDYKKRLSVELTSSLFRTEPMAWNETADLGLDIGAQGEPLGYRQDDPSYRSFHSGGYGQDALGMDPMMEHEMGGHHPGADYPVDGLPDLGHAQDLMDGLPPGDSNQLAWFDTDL
As to the kind of experiment: Direct fluorescence polarization. Format: binding. On the technique in general: In fluorescence polarisation assays a small probe gives low polarisation when free and higher when bound to something large.

Non-standard residues stand in square brackets, D forms with d. Residues, ends and D or L forms follow the SMILES beside them. *: point of attachment. FITC = O=C1OC2(c3ccc(O)cc3Oc3cc(O)ccc32)c2ccc(NC(=S)*)cc21; Nle = CCCC[C@H](N)C(=O)O; AEEA = NCCOCCOCC(=O)O; βAla = NCCC(=O)O

The term Kd denotes a measure of binding affinity in units of concentration. Low values mean higher affinity, high ones lower affinity.

`CCCC[C@H](NC(=O)[C@H](CC(C)C)NC(=O)[C@@H](NC(=O)[C@@H]1CCCN1C(=O)[C@H](C)NC(=O)[C@@H](NC(=O)[C@H](CC(=O)O)NC(=O)[C@H](CC(N)=O)NC(=O)[C@H](CCCNC(=N)N)NC(=O)[C@@H](NC(=O)[C@@H](NC(=O)CCNC(=O)CCNC(=O)[C@H](Cc1ccccc1)NC(=O)[C@@H](NC(=O)[C@H](CC(C)C)NC(=O)[C@H](CC(C)C)NC(=O)[C@H](CO)NC(=O)[C@H](CC(=O)O)NC(=O)COCCOCCNC(=S)Nc1ccc2c(c1)C(=O)OC21c2ccc(O)cc2Oc2cc(O)ccc21)C(C)C)C(C)C)[C@@H](C)O)C(C)C)[C@@H](C)O)C(=O)N[C@@H](CO)C(=O)N[C@H](C(=O)N1CCC[C@H]1C(=O)N[C@@H](CCC(N)=O)C(N)=O)C(C)C` [peptide 9] ({FITC-AEEA}-DSLLVF[βAla][βAla]VTRNDVAPTL[Nle]SVPQ-NH2) came in with a Kd of over 5 µM.
As for `CC(C)C[C@H](NC(=O)[C@H](CO)NC(=O)[C@H](CC(=O)O)NC(=O)COCCOCCNC(=S)Nc1ccc2c(c1)C(=O)OC21c2ccc(O)cc2Oc2cc(O)ccc21)C(=O)N[C@@H](CC(C)C)C(=O)N[C@H](C(=O)N[C@@H](Cc1ccccc1)C(=O)NCCC(=O)NCCC(=O)N[C@H](C(=O)N[C@H](C(=O)N[C@@H](CCCNC(=N)N)C(=O)N[C@@H](CC(N)=O)C(=O)N[C@@H](CC(=O)O)C(=O)N[C@H](C(N)=O)C(C)C)[C@@H](C)O)C(C)C)C(C)C` [peptide 11] ({FITC-AEEA}-DSLLVF[βAla][βAla]VTRNDV-NH2), the Kd was over 5 µM.

These data come from paper PMC8252567 (Angewandte Chemie (International Ed. in English), 2021).
